Reference: patent publication US20220282217A1, “COMPOSITIONS AND METHODS FOR PREPARING T CELL COMPOSITIONS AND USES THEREOF” (priority 2019, published 2022)
Read-outs that look alike come from different tables or passages of the source. Each block holds one compound with its values, some of them ahead of it. Where a SMILES comes first, the peptide text is derived from it.

How the values were obtained:
HLA-A24.02 [1] = assay: Class I MHC peptide binding affinity (displacement of radiolabeled reference peptide); design: species or system human; settings: allele A24.02; read-out: Observed Affinity (IC50; (nM))
HLA-A02.01 [2] = target: HLA-A02.01 (Homo sapiens, UniProt P04439, D140Y/D185E/D98H/E176V/E277Q/G131W/G231S/I119V/I121R/I166T/I218V/L300P/L318F/N151K/N90K/P208A/P217A/Q86G/Q94H/R138H/R169H/T345S); assay: as above; settings: for IC50: allele A02.01, (nM))
Procedure, shortened: (§1)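 Displacement format in which varying amounts of peptide compete for 2 days with a radiolabeled reference ligand prebound to class I MHC, residual complex-associated label being measured after gel-filtration separation.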

HLA-A24.02 [3] = assay: Class I MHC peptide binding stability (pMHC-I dissociation, 125I-labeled light chain); design: species or system human; settings: allele A24.02
HLA-A03.01 = HLA-A03.01 (Homo sapiens, UniProt P04439); assay: Class I MHC peptide binding affinity (displacement of radiolabeled reference peptide); settings: allele A03.01; read-out: Observed Affinity (IC50; (nM))
HLA-A01.01 = HLA-A01.01 (Homo sapiens, UniProt P04439, A114D/A174V/A182V/D101N/D185E/E176A/E190D/L180R/Q94H/R68K/S129P/T187R/V100A/V91M/W191G); assay: as above
Procedure, shortened: as §1

HLA-A02.01 [4] = target: T1, HLA-A02.01 (Homo sapiens, UniProt P04439, D140Y/D185E/D98H/E176V/E277Q/G131W/G231S/I119V/I121R/I166T/I218V/N151K/N90K/P208A/P217A/Q86G/Q94H/R138H/R169H); assay: Class I MHC peptide binding stability (pMHC-I dissociation, 125I-labeled light chain); settings: allele A02.01
T1 construct: made in house; host or cells: E. coli

[5] = read-out: Observed Affinity (IC50
[6] = allele A01.01, read-out: Observed Affinity (IC50, (nM))
[7] = Observed Affinity (IC50, (nM)), allele A01.01

Structure (SMILES): CC[C@H](C)[C@H](NC(=O)[C@@H]1CCCN1C(=O)[C@H](CC(C)C)NC(=O)[C@H](Cc1ccccc1)NC(=O)[C@H](CC(C)C)NC(=O)[C@H](CO)NC(=O)[C@H](CC(=O)O)NC(=O)[C@@H](NC(=O)[C@H](CC(C)C)NC(=O)[C@@H](N)CCSC)[C@@H](C)O)C(=O)O
Stability (T1/2 (h)) (HLA-A02.01 [4]): 1 h
IC50 (HLA-A01.01; [6]): 7670 nM

Structure (SMILES): CC[C@H](C)[C@H](NC(=O)[C@H](CO)NC(=O)[C@H](Cc1c[nH]c2ccccc12)NC(=O)[C@H](Cc1c[nH]cn1)NC(=O)[C@H](C)NC(=O)[C@@H]1CCCN1C(=O)[C@H](CCSC)NC(=O)[C@H](CC(C)C)NC(=O)[C@@H](N)CO)C(=O)O
IC50 (HLA-A24.02 [1]): 633 nM
Stability (T1/2 (h)) (HLA-A02.01 [4]): 5 h
IC50 (HLA-A02.01 [2]; [5]): 48 nM
Stability (T1/2 (h)) (HLA-A24.02 [3]): 0.4 h

Structure (SMILES): CC[C@H](C)[C@H](NC(=O)[C@H](CC(C)C)NC(=O)[C@H](CCC(N)=O)NC(=O)[C@@H](NC(=O)[C@@H](NC(=O)[C@H](CO)NC(=O)[C@@H](NC(=O)[C@H](CC(C)C)NC(=O)[C@@H](N)CS)[C@@H](C)O)[C@@H](C)O)C(C)C)C(=O)N[C@@H](CCSC)C(=O)O
Kd (HLA-A02.01 [2]): 537 nM
IC50 (HLA-A02.01 [2]; Observed Affinity (IC50): 716 nM
Kd (HLA-A01.01): 8280 nM
IC50 (HLA-A01.01; [7]): 11000 nM

Structure (SMILES): CC[C@H](C)[C@H](N)C(=O)N[C@@H](CC(C)C)C(=O)N[C@@H](CC(=O)O)C(=O)N[C@H](C(=O)N[C@@H](C)C(=O)NCC(=O)N[C@@H](CCCNC(=N)N)C(=O)N[C@@H](CCC(=O)O)C(=O)N[C@@H](CCC(=O)O)C(=O)N[C@@H](Cc1ccc(O)cc1)C(=O)O)[C@@H](C)O (H-ILDTAGREEY-OH; N-terminus and C-terminus assumed)
IC50 (HLA-A01.01; [7]): 7 nM

Structure (SMILES): CC[C@H](C)[C@H](NC(=O)[C@H](CCCCN)NC(=O)[C@H](Cc1ccc(O)cc1)NC(=O)[C@@H](NC(=O)[C@@H](NC(=O)[C@H](CC(=O)O)NC(=O)[C@H](CO)NC(=O)[C@@H](N)CCSC)[C@@H](C)O)[C@@H](C)O)C(=O)N[C@@H](Cc1ccc(O)cc1)C(=O)O (H-MSDTTYKIY-OH; N-terminus and C-terminus assumed)
IC50 (HLA-A01.01): 10.2 nM

Structure (SMILES): CC(C)C[C@H](NC(=O)[C@H](CC(C)C)NC(=O)[C@H](CC(C)C)NC(=O)[C@H](CC(=O)O)NC(=O)[C@H](CS)NC(=O)[C@H](CC(C)C)NC(=O)[C@@H]1CCCN1C(=O)[C@@H](NC(=O)[C@@H](N)C(C)C)C(C)C)C(=O)O (H-VVPLCDLLL-OH; N-terminus and C-terminus assumed)
IC50 (HLA-A24.02 [1]): 3890 nM
IC50 (HLA-A02.01 [2]; [5]): 1200 nM
Stability (T1/2 (h)) (HLA-A24.02 [3]): 0.4 h

Further lines, results first:

IC50 (HLA-A24.02 [1]): 8250 nM
IC50 (HLA-A02.01 [2]; [5]): 2550 nM
Stability (T1/2 (h)) (HLA-A24.02 [3]): 0.5 h
Structure (SMILES): CC(C)C[C@H](NC(=O)[C@H](CC(C)C)NC(=O)[C@H](CC(C)C)NC(=O)[C@H](CC(=O)O)NC(=O)[C@H](CO)NC(=O)[C@H](CC(C)C)NC(=O)[C@@H]1CCCN1C(=O)[C@@H](NC(=O)[C@@H](N)C(C)C)C(C)C)C(=O)O (H-VVPLSDLLL-OH; N-terminus and C-terminus assumed)

IC50 (HLA-A03.01): 2710 nM
IC50 (HLA-A01.01; [6]): 987 nM
Structure (SMILES): CC(C)C[C@H](NC(=O)[C@H](Cc1ccccc1)NC(=O)[C@H](CO)NC(=O)[C@H](CC(C)C)NC(=O)[C@@H](N)CS)C(=O)N[C@@H](CO)C(=O)N[C@@H](CO)C(=O)N[C@@H](Cc1c[nH]c2ccccc12)C(=O)N[C@@H](CC(=O)O)C(=O)N[C@@H](Cc1ccc(O)cc1)C(=O)O (H-CLSFLSSWDY-OH; N-terminus and C-terminus assumed)

IC50 (HLA-A01.01; [6]): 52.9 nM
Structure (SMILES): CC(C)C[C@H](NC(=O)[C@H](Cc1ccccc1)NC(=O)[C@H](CO)NC(=O)[C@@H](N)CC(C)C)C(=O)N[C@@H](CO)C(=O)N[C@@H](CO)C(=O)N[C@@H](Cc1c[nH]c2ccccc12)C(=O)N[C@@H](CC(=O)O)C(=O)N[C@@H](Cc1ccc(O)cc1)C(=O)O (H-LSFLSSWDY-OH; N-terminus and C-terminus assumed)

IC50 (HLA-A01.01; [6]): 4.4 nM
Structure (SMILES): C[C@H](NC(=O)[C@H](CC(N)=O)NC(=O)[C@@H](NC(=O)[C@@H](N)[C@@H](C)O)[C@@H](C)O)C(=O)N[C@@H](Cc1ccccc1)C(=O)N[C@@H](CO)C(=O)NCC(=O)N[C@@H](CCC(=O)O)C(=O)N[C@@H](Cc1ccc(O)cc1)C(=O)O (H-TTNAFSGEY-OH; N-terminus and C-terminus assumed)

IC50 (HLA-A01.01; [6]): 10.5 nM
Structure (SMILES): C[C@H](NC(=O)[C@H](CC(N)=O)NC(=O)[C@@H](NC(=O)[C@@H](NC(=O)[C@@H](N)Cc1ccc(O)cc1)[C@@H](C)O)[C@@H](C)O)C(=O)N[C@@H](Cc1ccccc1)C(=O)N[C@@H](CO)C(=O)NCC(=O)N[C@@H](CCC(=O)O)C(=O)N[C@@H](Cc1ccc(O)cc1)C(=O)O (H-YTTNAFSGEY-OH; N-terminus and C-terminus assumed)
